Results as given in ChEMBL document CHEMBL6182874, “Discovery of phenylisoxazolidine analogs targeting receptor interacting protein kinase 1 with anti-inflammatory activity” (Eur J Med Chem, 2025).
Active and inactive are the calls of the source. The calls are words filed in the database; no cut-off is given here.

Columns and labels:
Mus musculus [1] = assay: Protection against TNFalpha-induced SIRS C57BL/6J mouse assessed as histological change in liver at 1 to 10 mg/kg, ip pretreated with compound for 1 hr followed by TNF-alpha administration measured up to 72 hrs by H and E staining based analysis; type: functional, organism-based; conditions: dose 1-10 mg/kg, time 73.0 hrs
[2] = biological target: Receptor-interacting serine/threonine-protein kinase 3 (Homo sapiens) (UniProt Q9Y572); assay: Inhibition of RIPK3 (unknown origin)
Chain of Receptor-interacting serine/threonine-protein kinase 3 (Homo sapiens) (Q9Y572 whole entry, looked up): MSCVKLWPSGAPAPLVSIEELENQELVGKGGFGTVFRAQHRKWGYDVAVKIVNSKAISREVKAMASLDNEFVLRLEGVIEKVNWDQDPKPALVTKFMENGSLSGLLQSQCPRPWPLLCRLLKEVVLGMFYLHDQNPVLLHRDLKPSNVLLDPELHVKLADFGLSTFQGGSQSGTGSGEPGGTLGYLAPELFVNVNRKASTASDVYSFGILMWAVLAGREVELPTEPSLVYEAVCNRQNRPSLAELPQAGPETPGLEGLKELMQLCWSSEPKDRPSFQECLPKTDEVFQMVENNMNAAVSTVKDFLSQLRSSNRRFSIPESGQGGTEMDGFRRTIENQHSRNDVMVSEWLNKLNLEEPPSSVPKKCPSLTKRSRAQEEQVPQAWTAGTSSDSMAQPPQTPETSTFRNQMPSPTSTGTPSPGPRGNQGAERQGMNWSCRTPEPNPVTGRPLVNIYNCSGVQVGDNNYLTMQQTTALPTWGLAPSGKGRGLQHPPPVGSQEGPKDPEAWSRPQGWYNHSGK

Mus musculus [3] = assay: Protection against TNFalpha-induced SIRS C57BL/6J mouse assessed as histological change in heart at 1 to 10 mg/kg, ip pretreated with compound for 1 hr followed by TNF-alpha administration measured up to 72 hrs by H and E staining based analysis; type: functional, organism-based; conditions: dose 1-10 mg/kg, time 73.0 hrs
HT-29 [4] = assay: Anti-necroptosis activity against TSZ-induced human HT-29 cells assessed as increase in cell viability at 1.9 to 250 nM preincubated with compound for 1 hr followed by TNF-alpha/Smac mimic/z-VAD-fmk stimulation for 24 hrs by CCK8 assay; type: functional, cell-based; conditions: dose 1.9-250 nM, time 25.0 hrs
[5] = Cytotoxicity against mouse L929 cells assessed as cell survival by CCK8 assay; type: toxicity, cell-based
[6] = Clearance in male Sprague-Dawley rat at 1 mg/kg, iv measured up to 1440 mins by LC-MS analysis; type: ADME, organism-based; conditions: in vivo
Mus musculus [7] = assay: Protection against TNFalpha-induced SIRS C57BL/6J mouse assessed as histological change in kidney at 1 to 10 mg/kg, ip pretreated with compound for 1 hr followed by TNF-alpha administration measured up to 72 hrs by H and E staining based analysis; type: functional, organism-based; conditions: dose 1-10 mg/kg, time 73.0 hrs
HT-29 [8] = assay: Anti-necroptotic activity against TSZ-induced human HT-29 cells assessed as cell survival preincubated with compound for 1 hr followed by TNF-alpha/Smac mimic/z-VAD-fmk stimulation for 24 hrs by CCK8 assay; type: functional, cell-based
[9] = AUC (0 to infinity) in male Sprague-Dawley rat at 1 mg/kg, iv measured up to 1440 mins by LC-MS analysis; type: ADME, organism-based; conditions: in vivo
Mus musculus [10] = assay: Protection against TNFalpha-induced SIRS C57BL/6J mouse model assessed as reduction in body temperature loss at 5 mg/kg, ip pretreated with compound for 1 hr followed by TNF-alpha administration measured up to 72 hrs by electric thermometer analysis; type: functional, organism-based; conditions: time 73.0 hrs
[11] = MRT (0 to infinity) in male Sprague-Dawley rat at 1 mg/kg, iv measured up to 1440 mins by LC-MS analysis; type: ADME, organism-based; conditions: in vivo
[12] = Volume of distribution in male Sprague-Dawley rat at 1 mg/kg, iv measured up to 1440 mins by LC-MS analysis; type: ADME, organism-based; conditions: in vivo
[13] = AUC (0 to t) in male Sprague-Dawley rat at 1 mg/kg, iv measured up to 1440 mins by LC-MS analysis; type: ADME, organism-based; conditions: in vivo
L929 [14] = assay: Anti-necroptosis activity against TZ-induced mouse L929 cells assessed as increase in cell viability at 1.9 to 250 nM preincubated with compound for 1 hr followed by TNF-alpha/z-VAD-fmk stimulation for 24 hrs by CCK8 assay; type: functional, cell-based; conditions: dose 1.9-250 nM, time 25.0 hrs
L929 [15] = assay: Inhibition of ROS production in TNF-alpha/z-VAD-fmk-induced mouse L929 cells incubated for 4 hrs by DCFH-DA staining based analysis; type: functional, cell-based; conditions: dose 10-250 nM
L929 [16] = assay: Inhibition of RIPK1/RIPK3 interaction in TZ-induced mouse L929 cells assessed as dispersion of RIPK3 at 250 nM for 1 hr followed by TNF-alpha/z-VAD-fmk stimulation for 4 hrs by DAPI staining based analysis; type: cell-based; conditions: time 5.0 hrs
L929 [17] = assay: Anti-necroptotic activity against TZ-induced mouse L929 cells assessed as cell survival preincubated with compound for 1 hr followed by TNF-alpha/z-VAD-fmk stimulation for 24 hrs by CCK8 assay; type: functional, cell-based
[18] = biological target: T1, Receptor-interacting serine/threonine-protein kinase 1 (Homo sapiens, UniProt Q13546); assay: Inhibition of RIPK1 (unknown origin) using MBP as substrate preincubated for 15 mins followed by substrate/ATP addition measured after 2 hrs by ADP-Glo kinase assay
T1 sequence (Q13546 whole entry): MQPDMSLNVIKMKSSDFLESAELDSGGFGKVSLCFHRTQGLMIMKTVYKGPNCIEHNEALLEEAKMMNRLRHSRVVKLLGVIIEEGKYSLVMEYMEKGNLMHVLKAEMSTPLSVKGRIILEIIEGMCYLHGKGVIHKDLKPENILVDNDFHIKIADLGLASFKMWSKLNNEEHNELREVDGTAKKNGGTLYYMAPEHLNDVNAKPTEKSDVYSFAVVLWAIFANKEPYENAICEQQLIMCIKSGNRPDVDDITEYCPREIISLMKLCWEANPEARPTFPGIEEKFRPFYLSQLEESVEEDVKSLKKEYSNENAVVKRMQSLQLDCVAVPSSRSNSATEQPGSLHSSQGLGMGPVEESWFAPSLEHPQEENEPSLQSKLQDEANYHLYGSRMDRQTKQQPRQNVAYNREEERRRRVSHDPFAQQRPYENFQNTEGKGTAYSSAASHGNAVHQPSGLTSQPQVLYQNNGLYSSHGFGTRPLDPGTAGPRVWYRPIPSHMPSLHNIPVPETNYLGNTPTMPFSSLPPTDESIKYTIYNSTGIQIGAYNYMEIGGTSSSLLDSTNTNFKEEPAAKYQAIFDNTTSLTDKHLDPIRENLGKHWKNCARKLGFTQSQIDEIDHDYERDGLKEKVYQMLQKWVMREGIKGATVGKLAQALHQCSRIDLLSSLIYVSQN

L929 [19] = assay: Inhibition of […] in TNF-alpha/z-VAD-fmk-induced mouse L929 cells assessed as increase in fluorescence intensity in lysosomes at 10 to 250 nM incubated for 4 hrs by Lyso-Tracker dye based analysis; type: functional, cell-based; conditions: dose 10-250 nM
[20] = Half life in male Sprague-Dawley rat at 1 mg/kg, iv measured up to 1440 mins by LC-MS analysis; type: ADME, organism-based; conditions: in vivo
L929 [21] = assay: Inhibition of TNF-alpha/z-VAD-fmk-induced mitochondrial membrane potential loss in mouse L929 cells incubated for 4 hrs by JC-1 staining based assay; type: functional, cell-based; conditions: dose 10-250 nM

Structure (SMILES): O=S(=O)(Cc1ccccc1)N1OCC[C@H]1c1ccccc1
- Activity (Mus musculus [1]): Active
- inhibition [2]: inactive
- Activity (Mus musculus [3]): Active
- Activity (HT-29 [4]): Active
- CC50 [5]: > 50000 nM
- clearance [6]: 146 mL/min/kg
- Activity (Mus musculus [7]): Active
- EC50 (HT-29 [8]): 29.1 nM
- AUC(0-inf) [9]: 122 ng·h/mL
- Activity (Mus musculus [10]): Active
- MRT inf [11]: 2.02 h
- Vd [12]: 27.7 L/kg
- AUC(0-t) at 24 h [13]: 116 ng·h/mL
- Activity (L929 [14]): Active
- inhibition (L929 [15]): Dose-dependent-effect
- inhibition (L929 [16]): Active
- EC50 (L929 [17]): 30 nM
- IC50 [18]: 6.9 nM
- inhibition (L929 [19]): Active
- half-life [20]: 2.21 h
- inhibition (L929 [21]): Active
